Data published in US10626081B2, “Farnesoid X receptor agonists and uses thereof” (Metacrine, Inc., priority 2015, dated 2020).

Tests used:
FXR [1] = molecular target: T1, FXR (Homo sapiens, UniProt Q96RI1); test: In Vitro FXR Assay (TK): TK-ECRE-luc reporter in transfected CV-1 cells; assay type: cell-based; conditions: CV-1 cells transfected with hFXR, hRXR, 18 h incubation, luminescence
T1 construct: expressed in transfected cells; host or cells: CV-1 cells
T1 sequence (Q96RI1 1-486): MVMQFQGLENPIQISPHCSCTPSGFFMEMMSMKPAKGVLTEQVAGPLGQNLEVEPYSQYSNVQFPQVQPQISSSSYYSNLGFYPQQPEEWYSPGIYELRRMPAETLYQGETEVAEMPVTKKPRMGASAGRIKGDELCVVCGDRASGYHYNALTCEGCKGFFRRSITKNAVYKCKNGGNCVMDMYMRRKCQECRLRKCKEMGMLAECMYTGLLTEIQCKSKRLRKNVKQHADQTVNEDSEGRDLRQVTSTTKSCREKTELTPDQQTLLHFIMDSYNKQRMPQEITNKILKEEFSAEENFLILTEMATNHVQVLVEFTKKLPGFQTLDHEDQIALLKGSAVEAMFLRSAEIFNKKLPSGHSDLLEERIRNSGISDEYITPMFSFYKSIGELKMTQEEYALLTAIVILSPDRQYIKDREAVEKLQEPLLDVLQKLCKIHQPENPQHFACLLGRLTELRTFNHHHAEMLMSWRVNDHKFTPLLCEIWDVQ
T1 sequence (P19793 1-462 partner): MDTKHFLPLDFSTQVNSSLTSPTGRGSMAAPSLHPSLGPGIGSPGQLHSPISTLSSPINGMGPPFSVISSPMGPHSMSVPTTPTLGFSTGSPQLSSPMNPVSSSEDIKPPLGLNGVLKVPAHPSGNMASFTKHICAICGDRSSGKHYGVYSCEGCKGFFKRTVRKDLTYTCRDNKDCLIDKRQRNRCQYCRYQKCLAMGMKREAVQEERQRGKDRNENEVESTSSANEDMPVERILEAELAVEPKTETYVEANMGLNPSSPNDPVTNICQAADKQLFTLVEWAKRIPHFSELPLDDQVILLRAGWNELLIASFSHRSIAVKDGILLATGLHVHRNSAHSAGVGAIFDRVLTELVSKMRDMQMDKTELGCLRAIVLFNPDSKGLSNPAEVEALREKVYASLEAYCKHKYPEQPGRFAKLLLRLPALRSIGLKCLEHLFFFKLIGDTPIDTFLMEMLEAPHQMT
Procedure, shortened: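 CV-1 cells in charcoal-stripped FBS medium were transiently cotransfected with hFXR, hRXR, TK-ECRE-luc and pCMX-YFP plasmids. After 18 h, compounds serially diluted in DMSO were added for 18 h at 37 °C, 5% CO2, then cells were lysed and luminescence read.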

FXR [2] = molecular target: T1, FXR; test: In Vitro FXR Assay (PGL3): luciferase reporter in transfected CV-1 cells; assay type: cell-based; conditions: CV-1 cells transfected with hFXR, hRXR, PGL3-ECRE*6-luc; 18 h incubation; luminescence
Procedure, shortened: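 CV-1 cells in charcoal-stripped FBS were transiently co-transfected with full-length human FXR, RXR, an ECRE×6-luciferase reporter, β-gal and YFP plasmids. Transfected cells were reseeded onto half-log compound dilutions and incubated 18 h. Luciferase luminescence was read after lysis, and EC50 was determined.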

EC50 (FXR [1])	Cmpd/Fex (ratio of the EC50 for the test compound relative to the EC50 of the Fexaramine control) (FXR [2])	SMILES
1 to 10 µM	++ (‘++’ means Cmpd/Fex > 10 & < 100)	COC(=O)/C=C/c1cccc(N(Cc2ccc(-c3ccc(C(F)(F)F)cc3)cc2)C(=O)C2CCCCC2)c1 [compound 36, (E)-Methyl 3-(3-(N-((4′-(trifluoromethyl)-[1,1′-biphenyl]-4-yl)methyl)cyclohexanecarboxamido)phenyl)acrylate]
> 10 µM	+ (‘+’ means Cmpd/Fex > 100)	COC(=O)/C=C/c1cccc(N(Cc2cccc3ccccc23)C(=O)C2CCCCC2)c1 [compound 80, (E)-Methyl 3-(3-(N-(naphthalen-1-ylmethyl)cyclohexanecarboxamido)phenyl) acrylate]
≤ 1 µM	+++ (‘+++’ means Cmpd/Fex < 10)	COC(=O)/C=C/c1cccc(N(Cc2ccc(-c3ccc(OC)c(C)c3)cc2)C(=O)C2CCCCC2)c1 [compound 52, (E)-Methyl 3-(3-(N-((4′-methoxy-3′-methyl-[1,1′-biphenyl]-4-yl)methyl)cyclohexanecarboxamido)phenyl) acrylate]
≤ 1 µM	+++ (‘+++’ means Cmpd/Fex < 10)	COC(=O)/C=C/c1cccc(N(Cc2ccc(-c3ccc(N(C)C)cc3)cc2C)C(=O)C2CCCCC2)c1 [compound 54, (E)-Methyl 3-(3-(N-((4′-(dimethylamino)-3-methyl-[1,1′-biphenyl]-4-yl)methyl)cyclohexanecarboxamido)phenyl) acrylate]
1 to 10 µM	+ (‘+’ means Cmpd/Fex > 100)	COC(=O)/C=C/c1cccc(N(Cc2ccc(-c3c(C)noc3C)cc2)C(=O)C2CCCCC2)c1 [compound 31, (E)-Methyl 3-(3-(N-(4-(3,5-dimethylisoxazol-4-yl)benzyl)cyclohexanecarboxamido)phenyl)acrylate]
1 to 10 µM	+++ (‘+++’ means Cmpd/Fex < 10)	COC(=O)/C=C/c1cccc(N(Cc2ccc(-c3ccccc3C)cc2)C(=O)C2CCCCC2)c1 [compound 21, (E)-Methyl 3-(3-(N-((2′-methyl-[1,1′-biphenyl]-4-yl)methyl)cyclohexanecarboxamido)phenyl)acrylate]
1 to 10 µM	+ (‘+’ means Cmpd/Fex > 100)	COC(=O)/C=C/c1cccc(N(Cc2ccc(-c3ccccn3)cc2)C(=O)C2CCCCC2)c1 [compound 65, (E)-Methyl 3-(3-(N-(4-(pyridin-2-yl)benzyl)cyclohexanecarboxamido)phenyl) acrylate]
1 to 10 µM	++ (‘++’ means Cmpd/Fex > 10 & < 100)	COC(=O)/C=C/c1cccc(N(Cc2ccc(-c3cnn(C)c3)cc2)C(=O)C2CCCCC2)c1 [compound 28, (E)-Methyl 3-(3-(N-(4-(1-methyl-1H-pyrazol-4-yl)benzyl)cyclohexanecarboxamido)phenyl)acrylate]
> 10 µM	+ (‘+’ means Cmpd/Fex > 100)	COC(=O)/C=C/c1cccc(N(Cc2ccc(-c3cccc(C(C)C)c3)cc2)C(=O)C2CCCCC2)c1 [compound 47, (E)-Methyl 3-(3-(N-((3′-isopropyl-[1,1′-biphenyl]-4-yl)methyl)cyclohexanecarboxamido)phenyl) acrylate]
1 to 10 µM	+++ (‘+++’ means Cmpd/Fex < 10)	COC(=O)/C=C/c1cc(C)cc(N(Cc2ccc(-c3ccc(N(C)C)cc3)cc2)C(=O)C2CCCCC2)c1 [compound 39, (E)-Methyl 3-(3-(N-((4′-(dimethylamino)-[1,1′-biphenyl]-4-yl)methyl)cyclohexanecarboxamido)-5-methylphenyl)acrylate]
1 to 10 µM	+ (‘+’ means Cmpd/Fex > 100)	COC(=O)/C=C/c1cccc(N(Cc2ccc(-c3ccc4c(c3)ncn4C)cc2)C(=O)C2CCCCC2)c1 [compound 74, (E)-Methyl 3-(3-(N-(4-(1-methyl-1H-benzo[d]imidazol-5-yl)benzyl)cyclohexanecarboxamido)phenyl) acrylate]
1 to 10 µM	+ (‘+’ means Cmpd/Fex > 100)	COC(=O)/C=C/c1cccc(N(Cc2ccc(-c3ccncc3)cc2)C(=O)C2CCCCC2)c1 [compound 22, (E)-Methyl 3-(3-(N-(4-(pyridin-4-yl)benzyl)cyclohexanecarboxamido)phenyl) acrylate]
1 to 10 µM	+++ (‘+++’ means Cmpd/Fex < 10)	CNc1ccc(-c2ccc(CN(C(=O)C3CCCCC3)c3cccc(/C=C/C(=O)OC)c3)cc2)cc1 [compound 61, (E)-Methyl 3-(3-(N-((4′-(methylamino)-[1,1′-biphenyl]-4-yl)methyl)cyclohexanecarboxamido)phenyl) acrylate]
1 to 10 µM	+++ (‘+++’ means Cmpd/Fex < 10)	COC(=O)/C=C/c1cccc(N(Cc2ccc(-c3ccc(C#N)cc3)cc2)C(=O)C2CCCCC2)c1 [compound 23, (E)-Methyl 3-(3-(N-((4′-cyano-[1,1′-biphenyl]-4-yl)methyl)cyclohexanecarboxamido)phenyl)acrylate]
1 to 10 µM	+++ (‘+++’ means Cmpd/Fex < 10)	COC(=O)/C(C)=C/c1cccc(N(Cc2ccc(-c3ccc(N(C)C)cc3)cc2)C(=O)C2CCCCC2)c1 [compound 63, (E)-Methyl 3-(3-(N-((4′-(dimethylamino)-[1,1′-biphenyl]-4-yl)methyl)cyclohexanecarboxamido)phenyl)-2-methylacrylate]
> 10 µM	+ (‘+’ means Cmpd/Fex > 100)	CN(C)c1ccc(-c2ccc(CN(c3cccc(/C=C/C(=O)O)c3)C(=O)[C@H]3CC[C@H](O)CC3)cc2)cc1 [compound 89, (E)-3-(3-((1s,4s)-N-((4′-(Dimethylamino)-[1,1′-biphenyl]-4-yl)methyl)-4-hydroxycyclohexane-carboxamido)phenyl) acrylic acid]
1 to 10 µM	+ (‘+’ means Cmpd/Fex > 100)	COC(=O)/C=C/c1cccc(N(Cc2ccc(-c3ccccc3C#N)cc2)C(=O)C2CCCCC2)c1 [compound 66, (E)-Methyl 3-(3-(N-((2′-cyano-[1,1′-biphenyl]-4-yl)methyl)cyclohexanecarboxamido)phenyl) acrylate]
1 to 10 µM	++ (‘++’ means Cmpd/Fex > 10 & < 100)	COC(=O)/C=C/c1cccc(N(Cc2ccc(-c3ccc(F)cc3)cc2)C(=O)C2CCCCC2)c1 [compound 25, (E)-Methyl 3-(3-(N-((4′-fluoro-[1,1′-biphenyl]-4-yl)methyl)cyclohexanecarboxamido)phenyl)acrylate]
1 to 10 µM	+ (‘+’ means Cmpd/Fex > 100)	COC(=O)/C=C/c1cccc(N(Cc2ccc(-c3nccs3)cc2)C(=O)C2CCCCC2)c1 [compound 67, (E)-Methyl 3-(3-(N-(4-(thiazol-2-yl)benzyl)cyclohexanecarboxamido)phenyl) acrylate]
1 to 10 µM	++ (‘++’ means Cmpd/Fex > 10 & < 100)	COC(=O)/C=C/c1cccc(N(Cc2ccc(N3CCCCC3)cc2)C(=O)C2CCCCC2)c1 [compound 78, (E)-Methyl 3-(3-(N-(4-(piperidin-1-yl)benzyl)cyclohexanecarboxamido)phenyl) acrylate]
≤ 1 µM	+++ (‘+++’ means Cmpd/Fex < 10)	CCOC(=O)/C=C/c1cccc(N(Cc2ccc(-c3ccc(N(C)C)cc3)cc2)C(=O)C2CCCCC2)c1 [compound 84, (E)-Ethyl 3-(3-(N-((4′-(dimethylamino)-[1,1′-biphenyl]-4-yl)methyl)cyclohexanecarboxamido)phenyl) acrylate]
